Series [1] concerns the target T1, human H4 receptor (Homo sapiens, UniProt Q9H3N8).
T1 construct: expressed in transfected cells
The series is described as follows: [3H]Histamine binding on membranes of CHO cells stably expressing human H4 receptor. In short, it runs like this: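 Membranes from sub-confluent CHO-hH4 cells, 20 μg protein per well, were incubated in 50 mM Tris/HCl, 0.5 mM EDTA, pH 7.4. Nonspecific binding was defined with 10 μM JNJ 7777120. Bound radioactivity was collected on PEI-soaked GF/B filters and counted by liquid scintillation.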

T1 sequence (Q9H3N8 whole entry): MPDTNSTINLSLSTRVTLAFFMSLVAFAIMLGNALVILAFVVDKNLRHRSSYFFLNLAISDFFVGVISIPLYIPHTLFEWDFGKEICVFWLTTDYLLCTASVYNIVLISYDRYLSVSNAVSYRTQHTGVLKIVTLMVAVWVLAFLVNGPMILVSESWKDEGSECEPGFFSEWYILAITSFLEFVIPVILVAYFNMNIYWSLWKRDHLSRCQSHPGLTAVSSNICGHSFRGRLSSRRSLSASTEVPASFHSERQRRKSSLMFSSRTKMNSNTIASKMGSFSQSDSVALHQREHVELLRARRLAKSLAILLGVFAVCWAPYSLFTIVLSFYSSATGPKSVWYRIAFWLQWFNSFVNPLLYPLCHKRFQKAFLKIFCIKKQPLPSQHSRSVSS

On to `CN1CCC(NC(c2cccc(OC3CCCCO3)c2)c2nc3ccccc3[nH]2)CC1` (centres unmarked) [Example 120, {(1H-benzimidazol-2-yl)[3-(tetrahydropyran-2-yloxy)phenyl]methyl}(1-methylpiperidin-4-yl)amine], for which the melting point is 97 °C. Moreover, in series [1], the Ki or IC50 activity class was < 1000 nM.

The compound `CN1CCC(OC(c2nc3ccccc3[nH]2)c2cc(SCCF)ccc2O)CC1` (centres unmarked) [Example 614] had a melting point of 127 °C. For the same compound, in series [1], the Ki or IC50 activity class is < 30 nM.

Consider `CN1CCC(OC(c2ccc(C(F)(F)F)cc2)c2nc3ccccc3[nH]2)CC1` (centres unmarked) [Example 537], for which the melting point came to 86 °C. In addition, the Ki or IC50 activity class in series [1] was < 1000 nM.

Consider `CN1CCC(OC(c2nc3ccccc3[nH]2)c2ccc(C(F)(F)F)cc2F)CC1` (centres unmarked) [Example 540], for which the melting point is 91 °C. Moreover, the Ki or IC50 activity class in series [1] was < 300 nM.

Compound `CN1CCC(NC(c2ccc[nH]2)c2nc3ccccc3s2)CC1` (centres unmarked) [Example 58, [benzothiazol-2-yl(1H-pyrrol-2-yl)methyl](1-methylpiperidin-4-yl)amine] showed a melting point of 125 °C. The Ki or IC50 activity class in series [1] is < 300 nM.

Compound `Cc1cccc(C(OC2CCN(C)CC2)c2nc3ccccc3[nH]2)c1O` (centres unmarked) [Example 586] yielded a melting point of 111 °C. For the same compound, in series [1], the Ki or IC50 activity class is < 30 nM.

The compound `CCOC(=O)NCCCC#Cc1ccc(F)c(C(OC2CCN(C)CC2)c2nc3cc(F)ccc3[nH]2)c1` (centres unmarked) [Example 570] registered a melting point of 95 °C. The Ki or IC50 activity class in series [1] is < 300 nM.

For `CN1CCC(OC(c2nc3ccccc3[nH]2)c2cc3c(cc2O)CCC3)CC1` (centres unmarked) [Example 602], the melting point turned out to be 152 °C. The Ki or IC50 activity class in series [1] is < 300 nM.

With `Cc1ccc(C(OC2CCN(C)CC2)c2nc3ccccc3[nH]2)cc1F` (centres unmarked) [Example 554], the melting point is 92 °C. In series [1], the Ki or IC50 activity class is < 300 nM.

In turn, `CN1CCC(OC(c2nc3c(F)c(F)c(F)cc3[nH]2)c2cc(OC(F)(F)F)ccc2F)CC1` (centres unmarked) [Example 510] yielded a melting point of 75 °C. Further, the Ki or IC50 activity class in series [1] is < 300 nM.

Compound `CN1CCC(NC(c2cccc(OCCCCN)c2)c2nc3ccccc3[nH]2)CC1` (centres unmarked) [Example 367, [[3-(4-aminobutoxy)phenyl](1H-benzimidazol-2-yl)methyl](1-methylpiperidin-4-yl)amine] showed a melting point of 68 °C. In addition, the Ki or IC50 activity class in series [1] is < 300 nM.

As for `CCc1cccc(C(NC2CCN(C)CC2)c2nc3ccccc3[nH]2)c1` (centres unmarked) [Example 61, [(1H-benzimidazol-2-yl)(3-ethylphenyl)methyl](1-methylpiperidin-4-yl)amine], the melting point came to 76 °C. Moreover, the Ki or IC50 activity class in series [1] is < 30 nM.

`CN1CCC(OC(c2cccc(-c3ccc4c(c3)OCO4)c2)c2nc3ccccc3[nH]2)CC1` (centres unmarked) [Example 184, 2-[(3-benzo[1,3]dioxol-5-ylphenyl)(1-methylpiperidin-4-yloxy)methyl]-1H-benzimidazole] had a melting point of 95 °C. In series [1], the Ki or IC50 activity class is < 300 nM.

`CC(C)COc1cccc(C(NC2CCN(C)CC2)c2nc3ccccc3[nH]2)c1` (centres unmarked) [Example 67, [(1H-benzimidazol-2-yl)(3-isobutoxyphenyl)methyl](1-methylpiperidin-4-yl)amine] registered a melting point of 99 °C. Further, the Ki or IC50 activity class in series [1] was < 30 nM.

As for `CN1CCC(NC(c2cccc(OCCCCN)c2)c2nc3ccccc3s2)CC1` (centres unmarked) [Example 387, {[3-(4-aminobutoxy)phenyl]benzothiazol-2-yl-methyl}(1-methylpiperidin-4-yl)amine], the melting point is 67 °C. In addition, the Ki or IC50 activity class in series [1] was < 30 nM.

`CN1CCC(OC(c2nc3ccccc3[nH]2)c2cccc(-c3ccccc3)c2O)CC1` (centres unmarked) [Example 615] registered a melting point of 129 °C. In series [1], the Ki or IC50 activity class was < 300 nM.

Consider `CN1CCC(OC(c2nc3ccccc3[nH]2)c2c(O)cccc2Cl)CC1` (centres unmarked) [Example 594], for which the melting point turned out to be 145 °C. Besides, in series [1], the Ki or IC50 activity class is < 30 nM.

As to `CN1CCC(OC(c2nc3ccccc3[nH]2)c2ccccc2Cl)CC1` (centres unmarked) [Example 151, 2-[(2-chlorophenyl)(1-methylpiperidin-4-yloxy)methyl]-1H-benzimidazole], the melting point worked out at 212 °C. In addition, the Ki or IC50 activity class in series [1] is < 300 nM.

Compound `CN1CCC(OC(c2cccc(CCC3CNC3)c2)c2nc3ccccc3[nH]2)CC1` (centres unmarked) [Example 392, 2-[[3-(2-azetidin-3-ylethyl)phenyl](1-methylpiperidin-4-yloxy)methyl]-1H-benzimidazole] returned a melting point of 146 °C. Also, the Ki or IC50 activity class in series [1] is < 1000 nM.

On to `CN1CCC(OC(c2nc3ccccc3[nH]2)c2ccccc2O)CC1` (centres unmarked) [Example 561, 2-[(1H-benzimidazol-2-yl)(1-methylpiperidin-4-yloxy)methyl]phenol], for which the melting point lay within 118 to 120 °C. Moreover, the Ki or IC50 activity class in series [1] is < 30 nM.

The compound `CCCOc1cccc(C(NC2CCN(C)CC2)c2nc3ccccc3s2)c1` (centres unmarked) [Example 42, [benzothiazol-2-yl(3-propoxyphenyl)methyl](1-methylpiperidin-4-yl)amine] gave a melting point of 90 °C. The Ki or IC50 activity class in series [1] is < 30 nM.

The compound `CC(C)Oc1cccc(C(NC2CCN(C)CC2)c2nc3ccccc3[nH]2)c1` (centres unmarked) [Example 77, [(1H-benzimidazol-2-yl)(3-isopropoxyphenyl)methyl](1-methylpiperidin-4-yl)amine] registered a melting point of 75 °C. Further, the Ki or IC50 activity class in series [1] was < 300 nM.

The compound `CN1CCC(OC(c2nc3ccccc3[nH]2)c2cc(O)ccc2O)CC1` (centres unmarked) [Example 618] yielded a melting point of 189 °C. Also, in series [1], the Ki or IC50 activity class was < 30 nM.

The compound `CC(O)CSc1cccc(C(OC2CCN(C)CC2)c2nc3ccccc3[nH]2)c1` (centres unmarked) [Example 247, 1-{3-[(1H-benzimidazol-2-yl)(1-methylpiperidin-4-yloxy)methyl]phenylsulfanyl}propan-2-ol] showed a melting point of 120 to 122 °C. Further, in series [1], the Ki or IC50 activity class is < 300 nM.

As to `CN1CCC(OC(c2cccc(Br)c2)c2nc3cc(F)c(F)c(F)c3[nH]2)CC1` (centres unmarked) [Example 481, 2-[(3-bromophenyl)(1-methylpiperidin-4-yloxy)methyl]-5,6,7-trifluoro-1H-benzimidazole], the melting point worked out at 140 °C. In series [1], the Ki or IC50 activity class is < 1000 nM.

The compound `CN1CCC(OC(c2cccc(SCCC3CCCCN3)c2)c2nc3ccccc3[nH]2)CC1` (centres unmarked) [Example 395, 2-{(1-methylpiperidin-4-yloxy)[3-(2-piperidin-2-yl-ethylsulfanyl)phenyl]methyl}-1H-benzimidazole] gave a melting point of 164 °C. In addition, the Ki or IC50 activity class in series [1] was < 300 nM.

`CN1CCC(OC(c2nc3ccccc3[nH]2)c2cc(Br)ccc2F)CC1` (centres unmarked) [Example 555] had a melting point of 232 °C. In series [1], the Ki or IC50 activity class was < 30 nM.

`CN1CCC(NC(c2cccc([N+](=O)[O-])c2)c2nc3ccccc3[nH]2)CC1` (centres unmarked) [Example 131, [(1H-benzimidazol-2-yl)(3-nitrophenyl)methyl](1-methylpiperidin-4-yl)amine] registered a melting point of 254 °C. Besides, in series [1], the Ki or IC50 activity class was < 300 nM.

For the origin of these results see patent US8802664B2 (Bioproject, priority 2010, dated 2014).
